# Measured values taken from ChEMBL document CHEMBL5046296 (J Med Chem, 2022).
# Calls of active or inactive are those of the source. The rule behind the calls is not given here.
# Tests used:
# [1] = Ratio of drug concentration in spinal cord to plasma in CCI induced thermal hyperalgesia Sprague-Dawley rat model at 1 mg/kg, po measured at 5.75 hrs post dose; type: ADME, organism-based
# [2] = Tmax in dog at 3 mg/kg, po; type: ADME, organism-based, Canis lupus familiaris; details: in vivo
# [3] = Metabolic stability in human liver microsomes assessed as half life; type: ADME, Microsome
# [4] = AUC (infinity) in mouse at 2 mg/kg, iv; type: ADME, organism-based; design: time infinity, route intravenous, dose 2 mg/kg; details: in vivo
# [5] = Displacement of 3H-LP-927443 from AAK1 in mouse brain membrane homogenate assessed as inhibition constant at 1 uM incubated for 1 hr by liquid scintillation counter analysis; type: cell membranes
# [6] = molecular target: AP2-associated protein kinase 1 (Homo sapiens, UniProt Q2M2I8); assay: Inhibition of […] in HEK293F cells assessed as reduction in phospho mu2 formation incubated for 3 hrs by Western blot analysis; type: cell-based
# Sequence of AP2-associated protein kinase 1 (Q2M2I8 whole entry): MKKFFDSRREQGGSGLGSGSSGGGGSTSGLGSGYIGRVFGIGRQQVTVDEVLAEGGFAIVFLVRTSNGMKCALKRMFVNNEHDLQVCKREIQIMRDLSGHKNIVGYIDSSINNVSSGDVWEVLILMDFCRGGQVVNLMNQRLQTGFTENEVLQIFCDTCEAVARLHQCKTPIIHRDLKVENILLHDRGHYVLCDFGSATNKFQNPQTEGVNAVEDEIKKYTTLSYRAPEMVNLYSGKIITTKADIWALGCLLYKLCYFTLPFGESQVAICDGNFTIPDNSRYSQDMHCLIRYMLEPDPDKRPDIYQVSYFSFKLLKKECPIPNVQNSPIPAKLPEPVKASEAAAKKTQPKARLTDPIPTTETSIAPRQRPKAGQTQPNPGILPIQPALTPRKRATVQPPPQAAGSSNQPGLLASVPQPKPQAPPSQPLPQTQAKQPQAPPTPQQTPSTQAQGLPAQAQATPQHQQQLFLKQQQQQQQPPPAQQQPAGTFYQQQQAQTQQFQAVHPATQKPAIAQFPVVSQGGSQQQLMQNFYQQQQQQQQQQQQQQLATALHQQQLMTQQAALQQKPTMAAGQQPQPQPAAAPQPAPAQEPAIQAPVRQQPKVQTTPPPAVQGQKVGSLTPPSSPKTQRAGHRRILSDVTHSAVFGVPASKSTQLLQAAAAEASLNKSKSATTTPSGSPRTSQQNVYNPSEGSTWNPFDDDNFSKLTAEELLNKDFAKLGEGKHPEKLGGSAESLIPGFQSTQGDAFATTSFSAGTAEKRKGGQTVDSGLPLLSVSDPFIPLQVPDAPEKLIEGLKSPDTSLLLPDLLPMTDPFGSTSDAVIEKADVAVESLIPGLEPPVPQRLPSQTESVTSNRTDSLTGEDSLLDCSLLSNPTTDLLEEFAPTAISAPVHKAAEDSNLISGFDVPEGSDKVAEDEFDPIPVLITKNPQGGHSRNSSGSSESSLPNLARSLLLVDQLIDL
# Cytochrome P450 3A4 [7] = molecular target: T1, Cytochrome P450 3A4 (Homo sapiens, UniProt P08684); assay: Inhibition of CYP3A4 (unknown origin) using BFC as substrate; type: ADME
# T1 sequence (P08684 whole entry): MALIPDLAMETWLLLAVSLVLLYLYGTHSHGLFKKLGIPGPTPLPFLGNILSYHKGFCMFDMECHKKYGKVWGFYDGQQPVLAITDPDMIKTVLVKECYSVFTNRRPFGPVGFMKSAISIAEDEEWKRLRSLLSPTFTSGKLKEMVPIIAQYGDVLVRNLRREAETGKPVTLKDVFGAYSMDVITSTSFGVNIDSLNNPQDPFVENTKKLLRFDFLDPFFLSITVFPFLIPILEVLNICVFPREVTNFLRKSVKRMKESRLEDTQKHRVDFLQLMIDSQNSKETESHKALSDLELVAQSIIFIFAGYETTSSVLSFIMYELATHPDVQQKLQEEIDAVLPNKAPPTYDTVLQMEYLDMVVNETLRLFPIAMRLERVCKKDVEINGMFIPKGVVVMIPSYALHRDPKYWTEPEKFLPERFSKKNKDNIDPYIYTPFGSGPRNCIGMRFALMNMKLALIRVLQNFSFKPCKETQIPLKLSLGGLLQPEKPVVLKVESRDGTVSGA
# [8] = Metabolic stability in mouse liver microsomes assessed as CYP450-mediated metabolism by measuring parent compound remaining at 0.5 uM incubated for 10 mins in presence of NADPH by LC-MS/MS analysis; type: ADME; details: read-out: Stability
# [9] = Protein binding in rat plasma assessed as unbound fraction at 10 uM measured after 5 hrs by LC-MS/MS analysis; type: ADME, cell-free
# [10] = Protein binding in mouse plasma assessed as unbound fraction at 10 uM measured after 5 hrs by LC-MS/MS analysis; type: ADME, cell-free
# [11] = Permeability of compound at pH 7.4 measured after 4 hrs by PAMPA assay; type: ADME; details: read-out: permeability
# Aorta = assay: Cardiotoxicity in rat aortic ring assessed as relaxation of phenylephrine induced aortic ring contraction at 10 uM incubated for 1 hr; type: toxicity, tissue-based; design: scale not given: the % may be the effect or the level left
# [12] = Protein binding in cynomolgus monkey plasma assessed as unbound fraction at 10 uM incubated for 5 hrs by LC-MS/MS analysis; type: ADME, cell-free, Macaca fascicularis
# [13] = Metabolic stability in rat liver microsomes assessed as half life; type: ADME, Microsome
# [14] = Metabolic stability in mouse liver microsomes assessed as half life; type: ADME, Microsome
# [15] = Metabolic stability in cynomolgus monkey liver microsomes assessed as half life; type: ADME, Macaca fascicularis, Microsome
# Cytochrome P450 2C9 = Cytochrome P450 2C9 (Homo sapiens, UniProt P11712); assay: Inhibition of CYP2C9 (unknown origin); type: ADME
# Sequence of Cytochrome P450 2C9 (P11712 whole entry): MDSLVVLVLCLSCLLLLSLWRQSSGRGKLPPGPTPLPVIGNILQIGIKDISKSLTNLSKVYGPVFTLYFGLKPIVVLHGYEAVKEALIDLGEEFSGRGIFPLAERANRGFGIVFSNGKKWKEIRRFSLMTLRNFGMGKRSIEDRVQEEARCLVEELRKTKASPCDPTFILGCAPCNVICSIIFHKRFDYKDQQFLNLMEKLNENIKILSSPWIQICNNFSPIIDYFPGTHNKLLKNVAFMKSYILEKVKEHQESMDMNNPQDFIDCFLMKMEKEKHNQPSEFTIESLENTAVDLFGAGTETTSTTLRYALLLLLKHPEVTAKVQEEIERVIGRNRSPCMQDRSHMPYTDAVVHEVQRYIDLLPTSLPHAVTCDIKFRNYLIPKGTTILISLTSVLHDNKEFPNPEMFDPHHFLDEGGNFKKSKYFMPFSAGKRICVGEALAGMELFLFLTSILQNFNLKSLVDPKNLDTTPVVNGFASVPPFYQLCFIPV
# Cytochrome P450 2D6 = Cytochrome P450 2D6 (Homo sapiens, UniProt P10635); assay: Inhibition of CYP2D6 (unknown origin); type: ADME
# [16] = molecular target: Solute carrier organic anion transporter family member 1B1 (Homo sapiens, UniProt Q9Y6L6); assay: Inhibition of OATP1B1 (unknown origin)
# Sequence of Solute carrier organic anion transporter family member 1B1 (Q9Y6L6 whole entry): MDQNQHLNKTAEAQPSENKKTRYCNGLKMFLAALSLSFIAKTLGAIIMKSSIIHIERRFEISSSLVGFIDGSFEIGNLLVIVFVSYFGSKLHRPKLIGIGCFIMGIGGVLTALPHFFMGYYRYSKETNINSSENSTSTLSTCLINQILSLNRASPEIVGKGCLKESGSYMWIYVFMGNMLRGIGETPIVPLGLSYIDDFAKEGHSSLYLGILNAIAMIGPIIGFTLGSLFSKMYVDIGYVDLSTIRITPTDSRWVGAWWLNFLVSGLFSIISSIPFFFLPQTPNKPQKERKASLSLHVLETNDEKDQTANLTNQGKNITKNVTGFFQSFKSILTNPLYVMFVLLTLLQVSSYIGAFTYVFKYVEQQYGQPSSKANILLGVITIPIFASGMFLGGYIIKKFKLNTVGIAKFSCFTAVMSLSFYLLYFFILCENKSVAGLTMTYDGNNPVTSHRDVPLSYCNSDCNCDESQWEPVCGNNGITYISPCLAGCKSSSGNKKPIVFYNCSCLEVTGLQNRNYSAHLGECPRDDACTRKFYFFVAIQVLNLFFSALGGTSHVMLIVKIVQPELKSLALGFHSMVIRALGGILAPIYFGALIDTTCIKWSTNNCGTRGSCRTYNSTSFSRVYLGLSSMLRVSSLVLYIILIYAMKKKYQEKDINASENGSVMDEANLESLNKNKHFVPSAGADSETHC
# [17] = molecular target: Hepatic sodium/bile acid cotransporter (Homo sapiens, UniProt Q14973); assay: Inhibition of NTCP (unknown origin)
# Sequence of Hepatic sodium/bile acid cotransporter (Q14973 whole entry): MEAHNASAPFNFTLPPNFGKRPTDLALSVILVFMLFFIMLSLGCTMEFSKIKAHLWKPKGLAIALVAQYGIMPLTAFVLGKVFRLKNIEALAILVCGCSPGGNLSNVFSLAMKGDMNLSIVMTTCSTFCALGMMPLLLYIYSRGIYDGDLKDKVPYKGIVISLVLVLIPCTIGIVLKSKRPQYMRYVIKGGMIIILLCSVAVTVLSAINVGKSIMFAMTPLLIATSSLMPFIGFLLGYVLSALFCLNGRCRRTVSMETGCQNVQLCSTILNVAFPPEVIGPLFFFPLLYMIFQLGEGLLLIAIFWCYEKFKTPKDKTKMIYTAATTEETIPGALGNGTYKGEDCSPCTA
# [18] = molecular target: Broad substrate specificity ATP-binding cassette transporter ABCG2 (Homo sapiens, UniProt Q9UNQ0); assay: Inhibition of BCRP (unknown origin)
# [19] = molecular target: Sodium-dependent noradrenaline transporter (Homo sapiens, UniProt P23975); assay: Inhibition of NET (unknown origin); type: toxicity
# Rattus norvegicus [20] = assay: Analgesic activity in streptozotocin induced diabetic peripheral neuropathic mechanical allodynia in overnight fasted Sprague-Dawley rat model assessed as reduction in pain response at 3 mg/kg, po measured after 5.5 hrs post treatment; type: functional; design: scale not given: the % may be the effect or the level left
# [21] = Drug concentration in Sprague-Dawley rat spinal cord with CCI induced thermal hyperalgesia at 0.1 mg/kg, po measured at 5.75 hrs post dose; type: ADME, organism-based; details: read-out: Ct
# [22] = Drug concentration in Sprague-Dawley rat spinal cord with CCI induced thermal hyperalgesia at 0.3 mg/kg, po measured at 5.75 hrs post dose; type: ADME, organism-based; details: read-out: Ct
# [23] = Drug concentration in Sprague-Dawley rat spinal cord with CCI induced thermal hyperalgesia at 1 mg/kg, po measured at 5.75 hrs post dose; type: ADME, organism-based; details: read-out: Ct
# [24] = Drug uptake in Spinal cord of CCI induced thermal hyperalgesia Sprague-Dawley rat model assessed as spinal occupancy at 0.3 mg/kg, po measured at 5.75 hrs post dose in presence of [3H]BMT-046091; type: ADME, organism-based; details: in vivo
# [25] = Cmax in overnight fasted Sprague-Dawley rat plasma with streptozotocin induced diabetic peripheral neuropathic mechanical allodynia at 1 mg/kg, po measured at 5.5 hrs post dose; type: ADME, organism-based; design: route oral, time 5.5 hrs, dose 1 mg/kg
# [26] = Drug concentration in overnight fasted Sprague-Dawley rat spinal cord with streptozotocin induced diabetic peripheral neuropathic mechanical allodynia at 0.3 mg/kg, po measured at 5.5 hrs post dose; type: ADME, organism-based; details: read-out: Ct
# [27] = Drug concentration in overnight fasted Sprague-Dawley rat spinal cord with streptozotocin induced diabetic peripheral neuropathic mechanical allodynia at 1 mg/kg, po measured at 5.5 hrs post dose; type: ADME, organism-based; details: read-out: Ct
# [28] = Drug concentration in overnight fasted Sprague-Dawley rat spinal cord with streptozotocin induced diabetic peripheral neuropathic mechanical allodynia at 3 mg/kg, po measured at 5.5 hrs post dose; type: ADME, organism-based; details: read-out: Ct
# [29] = Ratio of drug concentration in spinal cord to plasma of overnight fasted Sprague-Dawley rat model with streptozotocin induced diabetic peripheral neuropathic mechanical allodynia at 0.1 mg/kg, po measured at 5.5 hrs post dose; type: ADME, organism-based
# Rattus norvegicus [30] = assay: Analgesic activity in streptozotocin induced diabetic peripheral neuropathic mechanical allodynia in overnight fasted Sprague-Dawley rat model assessed as efficacy at 3 mg/kg, po measured at 5.5 hrs post dose; type: functional
# [31] = Drug concentration in naive Sprague-Dawley rat spinal cord at 3 mg/kg, po measured at 5.25 hrs post dose; type: ADME, organism-based; details: read-out: Ct
# [32] = Drug concentration in naive Sprague-Dawley rat spinal cord at 10 mg/kg, po measured at 5.25 hrs post dose; type: ADME, organism-based; details: read-out: Ct
# [33] = AUC (infinity) in mouse at 3 mg/kg, po; type: ADME, organism-based; design: time infinity, route oral, dose 3 mg/kg; details: in vivo
# [34] = AUC (infinity) in monkey at 2 mg/kg, iv; type: ADME, organism-based, Macaca mulatta; design: time infinity, route intravenous, dose 2 mg/kg; details: rhesus monkey, in vivo
# [35] = Apparent elimination half life in mouse at 2 mg/kg, iv; type: ADME, organism-based; details: in vivo, read-out: betat1/2(app) (converted)
# [36] = MRT in rat at 2 mg/kg, iv; type: ADME, organism-based; details: in vivo
# [37] = Clearance in mouse at 2 mg/kg, iv; type: ADME, organism-based; details: in vivo
# [38] = Clearance in dog at 2 mg/kg, iv; type: ADME, organism-based, Canis lupus familiaris; details: in vivo
# [39] = Clearance in monkey at 2 mg/kg, iv; type: ADME, organism-based, Macaca mulatta; details: rhesus monkey, in vivo
# [40] = Volume of distribution at steady state in dog at 2 mg/kg, iv; type: ADME, organism-based, Canis lupus familiaris; details: in vivo, read-out: Vdss
# [41] = Oral bioavailability in dog at 3 mg/kg; type: ADME, organism-based, Canis lupus familiaris; details: in vivo
# [42] = molecular target: BMP-2-inducible protein kinase (Homo sapiens, UniProt Q9NSY1); assay: Inhibition of BIKE (unknown origin)
# Sequence of BMP-2-inducible protein kinase (Q9NSY1 whole entry): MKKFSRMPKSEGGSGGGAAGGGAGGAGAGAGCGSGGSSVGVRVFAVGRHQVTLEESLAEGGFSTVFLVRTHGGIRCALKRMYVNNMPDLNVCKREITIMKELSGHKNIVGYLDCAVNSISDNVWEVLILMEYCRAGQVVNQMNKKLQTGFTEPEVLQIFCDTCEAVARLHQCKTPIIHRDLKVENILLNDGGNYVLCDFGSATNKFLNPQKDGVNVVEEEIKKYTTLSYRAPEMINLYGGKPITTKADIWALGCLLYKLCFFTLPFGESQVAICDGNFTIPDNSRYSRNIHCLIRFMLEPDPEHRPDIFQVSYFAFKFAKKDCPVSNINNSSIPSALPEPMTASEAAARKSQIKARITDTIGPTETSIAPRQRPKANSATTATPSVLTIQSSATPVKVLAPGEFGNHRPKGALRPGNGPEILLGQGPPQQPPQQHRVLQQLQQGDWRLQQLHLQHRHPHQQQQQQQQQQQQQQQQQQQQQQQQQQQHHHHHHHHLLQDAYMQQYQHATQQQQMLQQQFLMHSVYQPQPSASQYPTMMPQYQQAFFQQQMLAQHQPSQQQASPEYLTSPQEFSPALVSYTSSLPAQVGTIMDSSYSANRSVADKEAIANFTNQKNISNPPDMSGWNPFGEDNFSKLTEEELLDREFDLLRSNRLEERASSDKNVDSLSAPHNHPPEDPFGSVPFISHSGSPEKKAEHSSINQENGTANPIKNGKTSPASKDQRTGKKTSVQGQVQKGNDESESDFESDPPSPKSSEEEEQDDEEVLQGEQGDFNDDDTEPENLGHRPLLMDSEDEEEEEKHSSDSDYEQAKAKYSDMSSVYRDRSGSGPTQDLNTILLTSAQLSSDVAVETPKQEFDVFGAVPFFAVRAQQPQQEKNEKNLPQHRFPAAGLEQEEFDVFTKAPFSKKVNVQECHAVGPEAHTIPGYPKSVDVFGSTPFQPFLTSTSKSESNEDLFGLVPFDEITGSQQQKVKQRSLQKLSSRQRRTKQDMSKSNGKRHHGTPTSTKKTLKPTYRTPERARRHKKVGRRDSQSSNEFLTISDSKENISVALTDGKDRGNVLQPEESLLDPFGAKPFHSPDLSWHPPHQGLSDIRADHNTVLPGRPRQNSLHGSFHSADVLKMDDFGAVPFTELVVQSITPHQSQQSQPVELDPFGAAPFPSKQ
# [43] = molecular target: MAP kinase-interacting serine/threonine-protein kinase 2 (Homo sapiens, UniProt Q9HBH9); assay: Inhibition of MNK2 (unknown origin)
# Sequence of MAP kinase-interacting serine/threonine-protein kinase 2 (Q9HBH9 whole entry, looked up): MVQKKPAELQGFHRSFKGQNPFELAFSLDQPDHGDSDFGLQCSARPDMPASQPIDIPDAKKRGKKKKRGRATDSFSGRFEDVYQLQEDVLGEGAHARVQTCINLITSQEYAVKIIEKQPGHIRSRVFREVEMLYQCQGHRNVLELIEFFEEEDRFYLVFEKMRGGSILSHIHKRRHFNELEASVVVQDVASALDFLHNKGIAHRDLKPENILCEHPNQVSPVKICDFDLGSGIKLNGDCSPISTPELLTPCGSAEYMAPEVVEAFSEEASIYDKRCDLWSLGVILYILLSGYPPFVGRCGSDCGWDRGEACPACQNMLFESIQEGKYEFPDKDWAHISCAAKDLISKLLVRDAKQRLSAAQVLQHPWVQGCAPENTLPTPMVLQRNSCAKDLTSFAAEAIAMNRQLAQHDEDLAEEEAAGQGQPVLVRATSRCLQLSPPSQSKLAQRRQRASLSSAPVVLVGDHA
# [44] = Solubility of the compound in citrate at pH 4.4 using crystalline form of sample; type: physicochemical
# [45] = Solubility of the compound in acetate at pH 4.6 using crystalline form of sample; type: physicochemical
# [46] = Solubility of the compound in ethanol; type: physicochemical
# Cytochrome P450 3A4 [47] = molecular target: T1, Cytochrome P450 3A4; assay: Time dependent inhibition of CYP3A4 (unknown origin) using MDZ as substrate measured at 30 mins; type: ADME
smiles,measurement,setting,value
CC(C)C[C@](C)(N)COc1ccc(-c2ccnc(C(F)F)c2)nc1C(F)F [PILAVAPADIN],Kp at 5.75 h,[1],19
same,Tmax,[2],1.3 h
same,half-life,[3],> 2 h
same,AUC(0-inf),[4],6710 ng·h/mL
same,Ki,[5],0.00031 µM
same,IC50,[6],0.002 µM
same,IC50,Cytochrome P450 3A4 [7],> 20 µM
same,"remaining at 10 min, 0.5 µM",[8],86%
same,"fraction unbound at 5 h, 10 µM",[9],0.1
same,"fraction unbound at 5 h, 10 µM",[10],0.046
same,Papp at 4 h,[11],72.4 ×10⁻⁶ cm/s
same,Activity,Aorta,42%
same,"fraction unbound at 5 h, 10 µM",[12],0.053
same,half-life,[13],> 2 h
same,half-life,[14],> 2 h
same,half-life,[15],0.212 h
same,IC50,Cytochrome P450 2C9,> 20 µM
same,IC50,Cytochrome P450 2D6,> 20 µM
same,IC50,[16],> 30 µM
same,IC50,[17],> 30 µM
same,IC50,[18],5.4 µM
same,IC50,[19],0.39 µM
same,Activity,Rattus norvegicus [20],60%
same,concentration at 5.75 h,[21],214 nM
same,concentration at 5.75 h,[22],431 nM
same,concentration at 5.75 h,[23],1220 nM
same,Occ,[24],83%
same,Cmax,[25],92 nM
same,concentration at 5.5 h,[26],206 nM
same,concentration at 5.5 h,[27],852 nM
same,concentration at 5.5 h,[28],2370 nM
same,Kp at 5.5 h,[29],13
same,Efficacy,Rattus norvegicus [30],63%
same,concentration at 5.25 h,[31],3860 nM
same,concentration at 5.25 h,[32],16100 nM
same,AUC(0-inf),[33],5780 ng·h/mL
same,AUC(0-inf),[34],980 ng·h/mL
same,half-life,[35],44.2 h
same,MRT,[36],11.6 h
same,clearance,[37],5 mL/min/kg
same,clearance,[38],28.5 mL/min/kg
same,clearance,[39],41.2 mL/min/kg
same,Vd,[40],11.8 L/kg
same,bioavailability,[41],87%
same,IC50,[42],1.9 µM
same,inhibition,[43],Active
same,solubility,[44],1400 µg/mL
same,solubility thermodynamic,[45],> 10000 µg/mL
same,solubility,[46],> 50000 µg/mL
same,IC50,Cytochrome P450 3A4 [47],> 40 µM
